ChEMBL document CHEMBL1777683, “Identification of plasmepsin inhibitors as selective anti-malarial agents using ligand based drug design” (Bioorg Med Chem Lett, 2011)

Experiments:
[1] = test system: Plasmodium falciparum; assay: Antimalarial activity against Plasmodium falciparum 3D7 infected in RBC assessed as parasite-specific lactate dehydrogenase release; assay type: functional, organism-based
[2] = target: Plasmepsin II (Plasmodium falciparum, UniProt P46925); assay: Inhibition of Plasmodium falciparum plasmepsin 2 using DABCYL-Glu-Arg-Nle-Phe-Leu- Ser-Phe-Pro-EDANS fluorogenic substrate by fluorogenic assay
Sequence of Plasmepsin II (P46925 whole entry): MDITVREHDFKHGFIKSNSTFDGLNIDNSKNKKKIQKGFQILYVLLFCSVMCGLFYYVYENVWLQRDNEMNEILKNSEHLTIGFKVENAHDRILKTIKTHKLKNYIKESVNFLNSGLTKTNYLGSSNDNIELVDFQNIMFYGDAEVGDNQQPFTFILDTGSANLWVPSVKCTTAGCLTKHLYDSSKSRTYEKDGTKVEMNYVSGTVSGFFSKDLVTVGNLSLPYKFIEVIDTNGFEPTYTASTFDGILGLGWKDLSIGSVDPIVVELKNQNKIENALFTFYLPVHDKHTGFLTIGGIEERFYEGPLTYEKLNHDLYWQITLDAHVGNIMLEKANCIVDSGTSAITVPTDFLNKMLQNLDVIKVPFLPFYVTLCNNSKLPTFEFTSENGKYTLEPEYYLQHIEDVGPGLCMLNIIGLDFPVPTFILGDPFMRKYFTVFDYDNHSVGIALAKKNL

[3] = Inhibition of Plasmodium falciparum plasmepsin 4 using DABCYL-Glu-Arg-Nle-Phe-Leu- Ser-Phe-Pro-EDANS fluorogenic substrate by fluorogenic assay
[4] = target: Cathepsin D (Homo sapiens) (UniProt P07339); assay: Inhibition of human liver Cathepsin D using KPIEF(nF)RL chromogenic substrate at 5 uM by absorbance assay
Sequence of Cathepsin D (Homo sapiens) (P07339 65-162 limits assumed): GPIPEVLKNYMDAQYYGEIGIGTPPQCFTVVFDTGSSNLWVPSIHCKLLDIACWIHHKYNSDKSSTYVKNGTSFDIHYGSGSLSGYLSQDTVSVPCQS
Sequence of Cathepsin D (Homo sapiens) (P07339 169-412 limits assumed): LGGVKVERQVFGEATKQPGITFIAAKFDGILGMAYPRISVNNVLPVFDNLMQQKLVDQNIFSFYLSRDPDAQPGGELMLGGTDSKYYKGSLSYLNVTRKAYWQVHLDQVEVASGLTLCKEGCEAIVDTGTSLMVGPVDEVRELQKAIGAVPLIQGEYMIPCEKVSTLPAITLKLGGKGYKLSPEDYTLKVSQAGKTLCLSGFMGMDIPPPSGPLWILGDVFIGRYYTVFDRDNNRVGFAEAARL

[5] = test system: Plasmodium falciparum; assay: Antimalarial activity against Plasmodium falciparum 3D7 infected in RBC assessed as parasite-specific lactate dehydrogenase release at 16 uM; assay type: functional
[6] = target: Plasmepsin II (Plasmodium falciparum) (UniProt P46925); assay: Inhibition of Plasmodium falciparum plasmepsin 2 using DABCYL-Glu-Arg-Nle-Phe-Leu- Ser-Phe-Pro-EDANS fluorogenic substrate at 5 uM by fluorogenic assay
Sequence of Plasmepsin II (Plasmodium falciparum) (P46925 125-453 limits assumed): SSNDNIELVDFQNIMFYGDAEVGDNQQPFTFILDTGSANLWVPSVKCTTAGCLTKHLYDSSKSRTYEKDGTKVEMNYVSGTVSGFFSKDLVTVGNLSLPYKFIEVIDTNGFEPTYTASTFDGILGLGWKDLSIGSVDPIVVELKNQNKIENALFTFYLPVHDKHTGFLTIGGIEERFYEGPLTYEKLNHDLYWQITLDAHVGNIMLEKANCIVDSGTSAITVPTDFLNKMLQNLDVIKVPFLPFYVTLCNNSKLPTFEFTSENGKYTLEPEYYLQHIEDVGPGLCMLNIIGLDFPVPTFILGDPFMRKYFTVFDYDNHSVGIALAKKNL

[7] = test system: Plasmodium falciparum; assay: Inhibition of Plasmodium falciparum plasmepsin 4 using DABCYL-Glu-Arg-Nle-Phe-Leu- Ser-Phe-Pro-EDANS fluorogenic substrate at 5 uM by fluorogenic assay

SMILES | IC50 [1] [µM] | IC50 [2] [µM] | Ki [2] [µM] | IC50 [3] [µM] | Ki [3] [µM] | inhibition [4] [%] | inhibition at 16 µM [5] [%] | inhibition [6] [%] | inhibition [7] [%]
O=C(NCCNC(=O)/C(=C\c1ccco1)NC(=O)c1ccccc1)/C(=C/c1ccco1)NC(=O)c1ccccc1 | 12 | – | – | – | – | – | – | – | –
CCCCOc1cccc(-c2cc(C(=O)N/N=C(\C)c3cccc(NC(=O)C(C)(C)C)c3)c3ccccc3n2)c1 | 3.7 | 11.5 | 8 | 15 | 13 | 12 | – | – | –
COc1ccc(-c2cc(-c3ccc(Cl)cc3)c(C#N)c(S[C@H](C)C(=O)Nc3ccc(C(C)=O)cc3)n2)cc1 | – | – | – | – | – | – | 32 | – | –
CCN(CC)c1ccc(/C=N/NC(=O)CSc2nc3ccccc3n2Cc2ccc(Cl)cc2)cc1 | 2.18 | 2.4 | 1.2 | 0.62 | 0.47 | 10 | – | – | –
CCOc1cccc(-c2cc(C(=O)N/N=C/c3ccc(OC)c(CN4CCSCC4)c3)c3ccccc3n2)c1 | 40 | – | – | – | – | – | – | – | –
CCOC(=O)c1ccc(/N=C2\S/C(=C\c3ccc(C(C)(C)C)cc3)C(=O)N2c2ccc(C(=O)OCC)cc2)cc1 | 5 | 6.1 | 4 | 3.7 | 3.23 | 15 | – | – | –
CCCCc1ccc(-c2cc(C(=O)Nc3scc(-c4cccnc4)c3C(=O)OC)c3cc(Br)ccc3n2)cc1 | 1.24 | – | – | – | – | – | – | – | –
COC(=O)CCC(=O)N(CCN(Cc1ccccc1)C(=O)CCC(=O)OC)Cc1ccccc1 | 5.24 | 10 | 7 | 9 | – | 35 | – | – | –
CCCCOc1ccc(-c2cc(C(=O)N/N=C(\C=C\c3ccc4c(c3)OCO4)c3ccc(OC)cc3)c3ccccc3n2)cc1 | 24 | – | – | – | – | – | – | – | –
CCN(CC)C(=O)c1sc(NC(=O)c2cc(-c3cccc(C)c3)nc3ccccc23)c(C(=O)OC)c1C | 4.5 | 2.5 | 2 | 2.6 | 2.5 | 20 | – | – | –
CCOc1ccc(N(C(=O)c2snc(C(=O)NC3CCCCC3)c2N)[C@H](C(=O)NCCc2ccccc2)c2ccc(OC)cc2)cc1 | 0.35 | – | – | – | – | 20 | – | 30 | 20
COc1ccc(Cl)cc1NC(=O)c1sc2nc(-c3ccccc3)cc(-c3ccc(OCc4ccccc4)c(OC)c3)c2c1N | 2.3 | 2.3 | 1.6 | 6.2 | 5.4 | 12 | – | – | –
COc1ccc([C@@H](C(=O)NC2CCCC2)N(C(=O)c2snc(C(N)=O)c2N)c2ccc(OC)cc2)cc1 | 25 | – | – | – | – | – | – | – | –
CC(C)CCNC(=O)[C@H](c1c[nH]c2ccccc12)N(C(=O)c1snc(C(N)=O)c1N)c1ccc2c(c1)OCO2 | 2.21 | 21.3 | 10.6 | 26 | 20 | 12 | – | – | –
Cc1ccc(NC(=S)N(Cc2ccc3c(c2)OCO3)Cc2cc3cccc(C)c3[nH]c2=O)cc1 | 9.6 | 7 | 4.6 | 6.3 | 5.5 | 35 | – | – | –
